Experimental data: patent US12263155B2, “Combinations of monoamine oxidase inhibitors and serotonin receptor agonists and their therapeutic use” (Remedi, Inc., priority 2022, dated 2025)
Where two headings read alike, the source gives them in different places.

Key:
[1] = Phase I modified release tablets BID pharmacokinetics; type: in vivo, human; conditions: for Cmax / AUC / concentration at 7 day: human, plasma, oral, 125 mg
Description: Methods: A total of 20 Subjects (16 on CX157 and 4 on placebo) were dosed with CX157 Modified Release Tablets, 125 mg BID (total daily dose of 250 mg) or placebo in Period 1 for 7 days. […] Subjects who were randomized to CX157 125 mg BID in Period 1 received CX157 175 mg BID in Period 2, after a washout of 7 days. Subjects randomized to placebo in Period 1 received placebo in Period 2, after a washout of 7 days. Blood samples for PK analysis were collected during both periods of the study.
Each oval, biconvex CX157 Film Coated Tablet, 125 mg has a white opaque film coating (Advantia™ Prime) and is stored long-term at controlled room temperature conditions [25° C. (77° F.); excursions 15-30° C. (59-86° F.)].
Each CX157 Modified Release Tablet, 175 mg is stored long-term at controlled room temperature conditions [25° C. (77° F.), excursions 15-30° C. (59-86° F.)]; the tablets are a modified caplet shape, pale pink in color, and plain on both sides.

[2] = test system: 69 binding sites in nine classes; assay: NovaScreen ligand-binding screen, other binding sites; conditions: 10.0 nM and 100 nM
Description: (§1) Methods: Investigational drug candidates CX157 were analyzed in NovaScreen's bank of ligand-binding reactions to test for specificity. CX157 was screened at concentrations of both 10.0 nM and 100 nM as potential competitors in binding reactions involving nine classes containing 69 binding sites. The following binding reactions are tested: Adenosine Non-selective, Adrenergic Alpha 1 Non-selective, Adrenergic Alpha 2 Non-selective, Adrenergic Beta Non-selective, Dopamine Transporter, Dopamine Non-selective, GABA A Agonist Site, GABA A BDZ alpha 1 site, GABA B, Glutamate AMPA Site (Ionotropic), Glutamate Kainate Site (Ionotropic), Glutamate NMDA Agonist Site (Ionotropic), Glutamate NMDA Glycine (Stry-insens Site) (Ionotrophic), Glycine Strychnine-sensitive, Histamine H1, Histamine H2, Histamine H3, Melatonin Non-selective, Muscarinic M1 (hr), Muscarinic M2 (hr), Muscarinic Non-selective Central, Muscarinic Non-selective Peripheral, Nicotinic (α-BnTx insensitive) Neuronal, Norepinephrine Transporter, Opioid Non-selective, Orphanin (hr), Serotonin Transporter, Serotonin Non-selective, Sigma Non-selective, Estrogen, Testosterone (cytosolic), Calcium Channel Type L (Dihydropyridine Site), Calcium Channel Type N, Potassium Channel ATP-Sensitive, Potassium Channel Ca2+ Act. VI, Potassium Channel I[Kr]

Oxidase MAO-B Peripheral = biological target: T1, Oxidase MAO-B Peripheral (Rattus norvegicus, UniProt P19643); assay: NovaScreen ligand-binding screen, MAO-B; conditions: 10.0 nM and 100 nM
T1 construct: purchased NovaScreen
T1 sequence (P19643 1-520): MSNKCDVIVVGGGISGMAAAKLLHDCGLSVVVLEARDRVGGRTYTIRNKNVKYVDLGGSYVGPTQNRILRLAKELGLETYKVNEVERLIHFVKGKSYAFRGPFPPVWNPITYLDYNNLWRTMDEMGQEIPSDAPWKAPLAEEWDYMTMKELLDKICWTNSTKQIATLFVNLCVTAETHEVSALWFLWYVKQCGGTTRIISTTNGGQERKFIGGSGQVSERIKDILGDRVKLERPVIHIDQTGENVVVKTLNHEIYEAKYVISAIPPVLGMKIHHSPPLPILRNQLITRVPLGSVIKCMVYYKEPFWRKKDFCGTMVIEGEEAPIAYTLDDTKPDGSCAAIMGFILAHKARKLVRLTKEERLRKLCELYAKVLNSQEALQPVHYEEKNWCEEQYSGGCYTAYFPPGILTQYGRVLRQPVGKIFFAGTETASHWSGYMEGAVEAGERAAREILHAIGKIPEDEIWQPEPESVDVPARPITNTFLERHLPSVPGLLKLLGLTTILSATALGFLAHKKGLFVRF
Description: as §1

[3] = biological target: T2, MAO-A from human brain striatum (Homo sapiens, UniProt P21397); assay: Inhibitory kinetics of human brain striatum MAO-A; type: biochemical; conditions: for Vmax: [14C]-5-HT substrate
T2 construct: homogenates of a post-mortem sample of the human brain striatum, served as the source of MAO-A enzymatic activity; from tissue; host or cells: human brain striatum, post-mortem (P2 mitochondrial-enriched fraction)
T2 sequence (P21397 1-527): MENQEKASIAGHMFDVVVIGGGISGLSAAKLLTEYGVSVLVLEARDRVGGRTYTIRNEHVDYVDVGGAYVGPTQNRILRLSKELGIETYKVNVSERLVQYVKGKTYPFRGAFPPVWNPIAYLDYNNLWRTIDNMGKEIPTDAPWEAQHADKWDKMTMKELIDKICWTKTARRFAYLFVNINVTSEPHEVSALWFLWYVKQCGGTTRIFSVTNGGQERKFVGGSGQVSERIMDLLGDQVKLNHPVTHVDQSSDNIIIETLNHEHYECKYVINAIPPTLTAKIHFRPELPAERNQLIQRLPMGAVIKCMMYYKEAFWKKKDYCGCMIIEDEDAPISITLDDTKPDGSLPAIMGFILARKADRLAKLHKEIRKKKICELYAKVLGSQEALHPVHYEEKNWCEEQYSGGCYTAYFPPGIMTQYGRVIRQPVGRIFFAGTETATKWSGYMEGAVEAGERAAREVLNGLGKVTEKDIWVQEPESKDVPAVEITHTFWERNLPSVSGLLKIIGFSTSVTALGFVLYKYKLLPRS
Description: Methods: The soluble extract of the mitochondrial enriched fraction (P2 pellet), which was prepared from homogenates of a post-mortem sample of the human brain striatum, served as the source of MAO-A enzymatic activity for this assay. After preparation, the P2 fraction was stored frozen until it was thawed for use on the day of assay. […] The MAO-A assay specificity was enhanced by inclusion of 0.1 μM deprenyl to prevent substrate oxidation by MAO-B. The CX157 competition for MAO-A activity was measured using either 1.0 nM or 5.0 nM CX157 against the 2 log unit concentration range of [^14C]-5-HT. The reference standard, RO 41-1049, was tested at 10 μM. Deprenyl (0.1 μM) was included in all MAO-A assays to prevent any potential for MAO-B mediated oxidation of the [^14C]-5-HT substrate. […] The MAO-A assays were performed using CX157 at concentrations of 0 nM (as a positive control), 1 nM and 5 nM. The Km and Vmax values were calculated from Lineweaver-Burke plots.

## O=S1(=O)c2ccc(F)cc2Oc2cc(OCC(F)(F)F)ccc21 [CX157, 3-fluoro-7(2,2,2-trifluorethoxy)phenoxathiine-10,10-dioxide]
[1]; 125 mg BID, Day 7
  fluctuation in CX157 concentrations during each 12-h dosing interval at steady state: 4.6 fold
[1]; BID dosing with 125 mg MR tablets
  accumulation, Day 7 versus Day 1 exposures: 2.6 fold
[1]; 125 mg BID, Day 1, read-out: mean Cmax
  Cmax: 134 ± 103 ng/mL
[1]; 12-hour AUC, 125 mg BID, Day 1
  AUC: 702 ± 500 ng·h/mL
[1]; MR tablets 125 mg BID, Day 7, mean, read-out: AUCSS
  AUC: 1280 ± 651 ng·h/mL
[1]; MR tablets 125 mg BID, Day 7, mean, read-out: CSS
  concentration at 7 day: 107 ± 54 ng/mL
[1]; MR tablets 125 mg BID, Day 7, mean, read-out: Cmax
  Cmax: 231 ± 114 ng/mL
[1]; MR tablets 125 mg BID, Day 7, mean, read-out: Cmin
  concentration at 7 day: 54.9 ± 32 ng/mL
[2]
  interactions with other binding sites in the screen: no interactions
Oxidase MAO-B Peripheral
  binding to MAO-B: did not bind to MAO-B
[3]; 5.0 nM CX157
  increase of Km of the enzyme for [14C]-5-HT: 34.6%
[3]; 1 nM CX157
  Vmax: 50777
[3]; 5 nM CX157
  Vmax: 59161
[3]; human brain striatum
  mode of MAO-A inhibition: competitive inhibitor
[3]; human brain striatum homogenate, from plot of Km values
  Ki: 10 nM
